# Assay results: patent publication US12018011B2, “Macrocyclic compounds and compositions, and methods of preparing and using the same” (Kura Oncology, Inc., priority 2021, dated 2024)
# Assays:
# [1] = Metabolic stability in human liver microsomes; assay type: in vitro ADME; conditions: human liver microsomes 0.5 mg protein/mL, test compound 1 μM, 37° C.; read-out: T1/2 in HLM
# Procedure: (§1) The metabolic stability of the compounds disclosed herein was determined by measuring half-life (T1/2) of the compounds in the presence of mouse liver microsomes (MLM) or human liver microsomes (BILM).
# (§2) Intermediate solution: 5 μL of compound and control stock solution (10 mM in dimethyl sulfoxide (DMSO)) were diluted with 495 μL of acetonitrile (ACN) (intermediate solution concentration: 100 μM, 99% ACN).
# (§3) Working solution: 50 μL of compound and control intermediate solution (100 μM) were diluted with 450 μL of 100 mM potassium phosphate buffer (working solution concentration: 10 μM, 9.9% ACN).
# (§4) Controls used in this assay: Testosterone, Diclofenac, and Propafenone.
# (§5) Preparation Procedure: The appropriate amount of NADPH powder was weighed and diluted into a 10 mM MgCl2 solution (working solution concentration: 10 unit/mL; final concentration in reaction system: 1 unit/mL).
# (§6) The appropriate concentrations of microsome working solutions were prepared in 100 mM potassium phosphate buffer.
# (§7) Cold (4° C.) acetonitrile (CAN) containing 200 ng/mL tolbutamide and 200 ng/mL labetalol as internal standards (IS) was used as the stop solution.
# (§8) Using an Apricot automation workstation, 10 μL/well of compound working solution were added to all 96-well reaction plates except the blank (T0, T5, T10, T20, T30, T60, and NCF60).
# (§9) An Apricot automation workstation was used to add 80 μL/well of microsome solution to all reaction plates (Blank, T0, T5, T10, T20, T30, T60, and NCF60).
# (§10) All reaction plates containing mixtures of compound and microsomes were pre-incubated at 37° C. for 10 minutes.
# (§11) An Apricot automation workstation was used to add 10 μL/well of 100 mM potassium phosphate buffer to reaction plate NCF60.
# (§12) Reaction plate NCF60 was incubated at 37° C. for 60 minutes.
# (§13) After pre-incubation, an Apricot automation workstation was used to add 10 μL/well of NADPH regenerating system to every reaction plate except NCF60 (Blank, T0, T5, T10, T20, T30, and T60) to start the reaction. Final concentration of each component in incubation medium: Microsome (0.5 mg protein/mL); Test Compound (1 μM); Control Compound (1 μM); Acetonitrile (0.99%); DMSO (0.01%).
# (§14) The reaction plates were incubated at 37° C. for 0 minute (T0, stop solution was added prior to microsome and NADPH solutions), 5 minutes (T5), 10 minutes (T10), 20 minutes (T20), 30 minutes (T30), 60 minutes (T60).
# (§15) An Apricot automation workstation was used to add 300 μL/well of stop solution to each reaction plate at its appropriate end time point to terminate the reaction.
# (§16) Each plate was sealed and shaken for 10 minutes.
# (§17) After shaking, each plate was centrifuged at 4000 rpm and 4° C. for 20 minutes.
# (§18) During centrifugation, an Apricot automation workstation was used to add 300 µL/well of HPLC grade water to eight new 96-well plates.
# (§19) After centrifugation, an Apricot automation workstation was used to transfer 100 μL of supernatant from each reaction plate to its corresponding bioanaylsis plate.
# (§20) Each bioanalysis plate was sealed and shaken for 10 minutes prior to LC-MS/MS analysis.
# (§21) The equation of first order kinetics was used to calculate T1/2 and CLint(mic) (μL/min/mg).
# [2] = molecular target: T1, Recombinant human farnesyl transferase (FTase) (Homo sapiens, UniProt P49356); assay: FTase fluorescence assay (farnesylation of dansyl-GCVLS peptide); assay type: biochemical; conditions: recombinant human FTase 2.5 nM, Dansyl-GCVLS 85 nM, FPP 30 nM, 30° C., 50 minutes
# T1 construct: purchased Crelux (Martinsried, Germany)
# T24/83 cells = assay: T24/83 cell proliferation assay (CellTiter-Glo); assay type: cell-based; conditions: Homo sapiens, 96 h, 4 days
# From the text: (§22) T24/83 cell line was purchased from the European Collection of Authenticated Cell Cultures (Salisbury, UK). Recombinant human farnesyl transferase (FTase) and geranylgeranyl transferase type-1 (GGTase) were obtained from Crelux (Martinsried, Germany). Dansyl labelled GCVLS peptide was purchased from Bachem (Torrance, CA), and Dansyl labelled GCVLL peptide was purchased from Bio Synthesis (Lewisville, TX). Farnesyl Pyrophosphate (FPP) and Geranylgeranyl pyrophosphate (GGPP) were purchased from Cayman (Ann Arbor, MI).
# Mutant oncogenic HRAS was originally identified in a human bladder carcinoma cell line called T24. T24/83 is a subline of T24 established more recently that has more favorable growth characteristics for in vitro assays. Thus, T24/83 is a well-characterized mutant HRAS-dependent cell line that is an ideal model for quantifying the HRAS-dependent antitumor activity of farnesyltransferase inhibitors.
# T24/83 cells were inoculated into 384 well plates at 100 cells/well, and grown in the presence of inhibitor, 0.7% DMSO as a negative control, or 100 μM tipifarnib as a positive control, at 37° C. for 4 days. Cell viability was assessed using the CellTiter-Glo Kit (CTG) (Promega; Madison, WI). Luminescence was recorded using EnVision microplate reader (PerkinElmer; Waltham, MA). In this assay, tipifarmib was used as a positive control. All the assay plates passed the QC criteria (S/B, Z-factor).
# [3] = molecular target: T2, geranylgeranyl transferase type-1 (GGTase) (Homo sapiens, UniProt P53609); assay: GGTase fluorescence assay (dansyl-GCVLL peptide, GGPP); assay type: biochemical; conditions: GGTase 25 nM, Dansyl-GCVLL 10 μM, GGPP 10 μM, 30° C., 120 minutes
# T2 construct: purchased Crelux (Martinsried, Germany)
# From the text: as §22
# Geranylgeranyl transferase (GGTase) is a closely related enzyme to farnesyl transferase (FTase). The two enzymes share a common regulatory chain but have distinct individual enzymatic domains. GGTase catalyses the addition of an alternative prenylated side chain to some of the same proteins that may also be farnesylated. Thus, selective inhibitory activity against FTase relative to GGTase is a critical characteristic for FTase inhibitors.
# The IC50 value of the compounds disclosed herein as inhibitors of Ftase and/or GGTase, was determined by measuring the concentration (provided in nM) necessary to achieve inhibition of enzyme activity by 50% (IC50). […] Compounds having a low IC50 value against FTase, for example an IC50 (FTase)<100 nM, such as an IC50 (FTase)<10 nM, are preferred. Compounds having a low IC50 value against FTase and a high IC50 value against GGTase, for example an IC50 (FTase)<100 nM, such as an IC50 (FTase)<10 nM, and an IC50 (GGTase)>100 nM, are potent and selective inhibitors of FTase, and are particularly preferred.
# The inhibition activities of the compounds disclosed herein against Ftase and GGTase were measured in the respective fluorescence assays as follows:
# For the GGTase assay, GGTase (25 nM), Dansyl labelled GCVLL peptide (10 μM), GGPP (10 μM) and inhibitor were mixed in assay buffer (50 mM Tris, pH 7.5, 10 mM magnesium chloride, 10 μM zinc chloride, 0.08% CHAPS, 5 mM dithiothreitol) and incubated in a total volume of 20 μL at 30° C. for 120 minutes.
# For both the FTase assay and GGTase assay, fluorescence intensity was detected (excitation at 340 nm and emission at 486 nm) using EnVision (PerkinElmer; Waltham, MA), IC50 determinations were performed using a sigmoidal dose-response model with Xlfit software (IDBS, Inc.; Boston, MA), and tipifarnib was used as a positive control. All the assay plates for each assay passed the QC criteria (S/B, Z factor).
# [4] = Metabolic stability in mouse liver microsomes; assay type: in vitro ADME; conditions: CD-1 mouse liver microsomes 0.5 mg protein/mL, test compound 1 μM, 37° C.; read-out: T1/2 in MLM
# Procedure: as §1, §2, §3, §4, §5, §6, §7, §8, §9, §10, §11, §12, §13, §14, §15, §16, §17, §18, §19, §20, §21
half-life at 1 μM [1],IC50 [2],IC50 (T24/83 cells),IC50 [3],half-life at 1 μM [4],SMILES
30 to 100 min,≤ 10 nM,50 to 500 nM,> 1000 nM,< 5 min,"Cn1cncc1[C@@]1(O)c2ccc(Cl)c(c2)OCc2cccc(c2)-c2cc(=O)n(C)c3ccc1cc23 [(S)-14, (S)-4^4-chloro-3-hydroxy-2^1-methyl-3-(1-methyl-1H-imidazol-5-yl)-2^1,2^2-dihydro-5-oxa-2(4,6)-quinolina-1,4(1,3)-dibenzenacyclohexaphan-2^2-one]"
< 30 min,≤ 10 nM,≤ 50 nM,> 1000 nM,5 to 15 min,"[2H]C([2H])([2H])n1c(=O)cc2c3cc(ccc31)[C@@](N)(c1cncn1C)c1ccc(C#N)c(c1)CCc1cccc-2c1 [(R)-8, (R)-3-amino-2^1-(methyl-d3)-3-(1-methyl-1H-imidazol-5-yl)-2^2-oxo-2^1,2^2-dihydro-2(4,6)-quinolina-1,4(1,3)-dibenzenacyclohexaphane-4^4-carbonitrile]"
> 100 min,≤ 10 nM,≤ 50 nM,> 1000 nM,> 15 min,"[2H]C([2H])([2H])n1c(=O)cc2c3cc(ccc31)[C@@](N)(c1cncn1C)c1ccc(C#N)c(c1)COc1cccc-2c1 [(S)-56, (S)-3-amino-2^1-(methyl-d3)-3-(1-methyl-1H-imidazol-5-yl)-2^2-oxo-2^1,2^2-dihydro-6-oxa-2(4,6)-quinolina-1,4(1,3)-dibenzenacyclohexaphane-4^4-carbonitrile]"
> 100 min,≤ 10 nM,50 to 500 nM,> 1000 nM,> 15 min,"Cn1cnnc1[C@@]1(N)c2ccc(Cl)c(c2)COc2cccc(c2)-c2cc(=O)n(C)c3ccc1cc23 [(S)-51, (S)-3-amino-4^4-chloro-2^1-methyl-3-(4-methyl-4H-1,2,4-triazol-3-yl)-2^1,2^2-dihydro-6-oxa-2(4,6)-quinolina-1,4(1,3)-dibenzenacyclohexaphan-2^2-one]"
< 30 min,≤ 10 nM,≤ 50 nM,> 1000 nM,5 to 15 min,"Cn1cncc1[C@@]1(N)c2ccc(C#N)c(c2)CCc2cccc(c2)-c2cc(=O)n(C)c3ccc1cc23 [(R)-7, (R)-3-amino-2^1-methyl-3-(1-methyl-1H-imidazol-5-yl)-2^2-oxo-2^1,2^2-dihydro-2(4,6)-quinolina-1,4(1,3)-dibenzenacyclohexaphane-4^4-carbonitrile]"
–,≤ 10 nM,≤ 50 nM,100 to 1000 nM,–,"Cn1cncc1[C@@]1(N)c2ccc(C#N)c(c2)OCc2cccc(c2)-c2cc(C#N)nc3ccc1cc23 [(S)-21, (S)-3-amino-3-(1-methyl-1H-imidazol-5-yl)-5-oxa-2(4,6)-quinolina-1,4(1,3)-dibenzenacyclohexaphane-2^2 4^4-dicarbonitrile]"
> 100 min,≤ 10 nM,≤ 50 nM,> 1000 nM,5 to 15 min,"[2H]C([2H])([2H])n1c(=O)cc2c3cc(ccc31)[C@@](N)(c1cncn1C)c1ccc(Cl)c(c1)COc1cccc-2c1 [(S)-47, (S)-3-amino-4^4-chloro-2^1-(methyl-d3)-3-(1-methyl-1H-imidazol-5-yl)-2^1,2^2-dihydro-6-oxa-2(4,6)-quinolina-1,4(1,3)-dibenzenacyclohexaphan-2^2-one]"
< 30 min,≤ 10 nM,≤ 50 nM,> 1000 nM,< 5 min,"Cn1cncc1[C@@](N)(c1ccc(Cl)cc1)c1ccc2c(c1)c(-c1cccc(Cl)c1)cc(=O)n2C [Tipifarnib, tipifarnib, reference compound]"
–,≤ 10 nM,≤ 50 nM,> 1000 nM,–,"Cn1cncc1[C@@]1(N)c2ccc(C#N)c(c2)COc2cccc(c2)-c2cc(=O)n(C3CC3)c3ccc1cc23 [(S)-57, (S)-3-amino-2^1-cyclopropyl-3-(1-methyl-1H-imidazol-5-yl)-2^2-oxo-2^1,2^2-dihydro-6-oxa-2(4,6)-quinolina-1,4(1,3)-dibenzenacyclohexaphane-4^4-carbonitrile]"
–,≤ 10 nM,≤ 50 nM,100 to 1000 nM,–,"Cn1cncc1[C@@]1(N)c2ccc(C#N)c(c2)CCc2cccc(c2)-c2cc(C#N)nc3ccc1cc23 [(R)-9, (R)-3-amino-3-(1-methyl-1H-imidazol-5-yl)-2(4,6)-quinolina-1,4(1,3)-dibenzenacyclohexaphane-2^2 4^4-dicarbonitrile]"
–,≤ 10 nM,≤ 50 nM,> 1000 nM,–,"Cn1cncc1[C@@]1(N)c2ccc(Cl)c(c2)COc2cccc(c2)-c2cc(C#N)nc3ccc1cc23 [(S)-48, (S)-3-amino-4^4-chloro-3-(1-methyl-1H-imidazol-5-yl)-6-oxa-2(4,6)-quinolina-1,4(1,3)-dibenzenacyclohexaphane-2^2-carbonitrile]"
–,≤ 10 nM,≤ 50 nM,> 1000 nM,–,"[2H]C([2H])([2H])n1c(=O)cc2c3cc(ccc31)[C@@](O)(c1cncn1C)c1ccc(C#N)c(c1)COc1cccc-2c1 [(S)-55, (S)-3-hydroxy-2^1-(methyl-d3)-3-(1-methyl-1H-imidazol-5-yl)-2^2-oxo-2^1,2^2-dihydro-6-oxa-2(4,6)-quinolina-1,4(1,3)-dibenzenacyclohexaphane-4^4-carbonitrile]"
